Measurements taken from patent US11542497B2, “Method for evaluating multiple different genes of interest” (THE UNIVERSITY OF TOKYO, priority 2017, dated 2023).

What was measured:
[1] = test system: DLD1 BRCA2 (−/−) line with introduced BRCA2 variants; experiment: MANO-B method, olaparib at varied concentrations (Example 7); type: cell-based; details: for relative read count (no chemical = 1): Day 12, average of n=3
Method: (§1) First, 3 different unique bar code sequences were added (to conduct experiments at n=3) to each of 11 different plasmids including: plasmids having wild-type BRCA2, K2729N mutation (benign), D2723H mutation (pathogenic), and 7 truncate variants in which a stop codon is introduced about every 500 amino acids (K485*, L997*, Q1502*, K1984*, C2535*, W2970*, C3304*); and piggyBac empty vector (System Biosciences, LLC). Accordingly, the total of 33 different plasmids were prepared. DLD1 BRCA2 (−/−) line was transfected with each plasmid and a transposase expression plasmid pCMV-hyPBase (Sanger Institute) in accordance with the manufacturer's protocol. In this way, cells having BRCA genes stably introduced in their genome were prepared.
(§2) Different cell lines having mutated genes tagged with bar code sequences introduced were mixed in equal numbers. At this time point, genomic DNA was once extracted (Day 0). Here, a PARP inhibitor (olaparib) was given at varied concentrations and then cultured. Genomic DNA was extracted from the cells collected at Day 12 and was used as a template to PCR-amplify each bar code sequence. After that, deep-sequencing was performed with a next-generation sequencer. The effects of each mutation on the drug sensitivity and the cell proliferation potential were assessed from a change in the ratio of bar code read counts between the case of no chemical treatment and the case of chemical treatment.
The results were normalized while the read count when no chemical was given was set to 1.
When functional BRCA2 is introduced into cells, homologous recombination-mediated repair function is restored, and thus the sensitivity to the drug, a PARP inhibitor, decreases and the cells become resistant to the inhibitor. By contrast, cells having a function-deficient BRCA2 introduced are sensitive to the PARP inhibitor, so that the relative cell count decreases when the PARP inhibitor is added. Based on such criteria, the function of each mutated BRCA2 was examined. […] Thus, the mutation was determined to be a function-preserving, benign mutation, which is consistent with past reports.

[2] = test system: DLD1 BRCA2 (−/−) line with introduced BRCA2 mutations; experiment: MANO-B method, Clinvar BRCA2 mutations, olaparib 1 μM (Example 8, FIG. 9); type: cell-based
Method: as §1, §2
Mutations registered at the Clinvar (https://www.ncbi.nlm.nih.gov/clinvar/) (18 kinds of benign mutation, 52 mutations of VUS or with conflicting interpretations, and 8 kinds of malignant mutation) were evaluated by the MANO-B method using the same procedure as of Example 7 (except that olaparib was used at 1 μM). As a result, most of the benign mutations or malignant mutations registered at the Clinvar were determined to be likewise benign or malignant, respectively, by the MANO-B method (data not shown).

In the case of `O=C(c1cc(Cc2n[nH]c(=O)c3ccccc23)ccc1F)N1CCN(C(=O)C2CC2)CC1` [olaparib], the “relative read count (no chemical = 1)” value ([1]; BRCA2 C2535*, olaparib 1 nM) is reported as 0.94, the “relative read count (no chemical = 1)” value ([1]; BRCA2 C2535*, olaparib 5 nM) is reported as 0.78 and the “relative read count (no chemical = 1)” value ([1]; BRCA2 C2535*, olaparib 10 nM) is reported as 0.77. The “relative read count (no chemical = 1)” value ([1]; BRCA2 C2535*, olaparib 50 nM) was 0.4, the “relative read count (no chemical = 1)” value ([1]; BRCA2 C2535*, olaparib 100 nM) was 0.27 and the “relative read count (no chemical = 1)” value ([1]; BRCA2 C2535*, olaparib 500 nM) was 0.08. For the same compound, the “relative read count (no chemical = 1)” value ([1]; BRCA2 C2535*, olaparib 1 μM) was 0.05, the “relative read count (no chemical = 1)” value ([1]; BRCA2 C3304*, olaparib 1 nM) was 0.98 and the “relative read count (no chemical = 1)” value ([1]; BRCA2 C3304*, olaparib 5 nM) was 1.14. For the same compound, the “relative read count (no chemical = 1)” value ([1]; BRCA2 C3304*, olaparib 10 nM) was 1.17, the “relative read count (no chemical = 1)” value ([1]; BRCA2 C3304*, olaparib 50 nM) was 0.94 and the “relative read count (no chemical = 1)” value ([1]; BRCA2 C3304*, olaparib 100 nM) was 0.69. The “relative read count (no chemical = 1)” value ([1]; BRCA2 C3304*, olaparib 500 nM) was 0.3, the “relative read count (no chemical = 1)” value ([1]; BRCA2 C3304*, olaparib 1 μM) was 0.29 and the “resistance of BRCA2 D2723H mutant to the PARP inhibitor” value ([1]; BRCA2 D2723H) was “did not exhibit resistance”. For the same compound, the “relative read count (no chemical = 1)” value ([1]; BRCA2 D2723H, olaparib 1 nM) was 0.97, the “relative read count (no chemical = 1)” value ([1]; BRCA2 D2723H, olaparib 5 nM) was 0.76 and the “relative read count (no chemical = 1)” value ([1]; BRCA2 D2723H, olaparib 10 nM) was 0.67. The “relative read count (no chemical = 1)” value ([1]; BRCA2 D2723H, olaparib 50 nM) was 0.34, the “relative read count (no chemical = 1)” value ([1]; BRCA2 D2723H, olaparib 100 nM) was 0.18 and the “relative read count (no chemical = 1)” value ([1]; BRCA2 D2723H, olaparib 500 nM) was 0.07. The “relative read count (no chemical = 1)” value ([1]; BRCA2 D2723H, olaparib 1 μM) was 0.07, the “relative read count (no chemical = 1)” value ([1]; BRCA2 K485*, olaparib 1 nM) was 0.79 and the “relative read count (no chemical = 1)” value ([1]; BRCA2 K485*, olaparib 5 nM) was 0.66. For the same compound, the “relative read count (no chemical = 1)” value ([1]; BRCA2 K485*, olaparib 10 nM) was 0.54, the “relative read count (no chemical = 1)” value ([1]; BRCA2 K485*, olaparib 50 nM) was 0.26 and the “relative read count (no chemical = 1)” value ([1]; BRCA2 K485*, olaparib 100 nM) was 0.15. The “relative read count (no chemical = 1)” value ([1]; BRCA2 K485*, olaparib 500 nM) was 0.06, the “relative read count (no chemical = 1)” value ([1]; BRCA2 K485*, olaparib 1 μM) was 0.05 and the “relative read count (no chemical = 1)” value ([1]; BRCA2 K1984*, olaparib 1 nM) was 0.94. The “relative read count (no chemical = 1)” value ([1]; BRCA2 K1984*, olaparib 5 nM) was 0.84, the “relative read count (no chemical = 1)” value ([1]; BRCA2 K1984*, olaparib 10 nM) was 0.77 and the “relative read count (no chemical = 1)” value ([1]; BRCA2 K1984*, olaparib 50 nM) was 0.36. For the same compound, the “relative read count (no chemical = 1)” value ([1]; BRCA2 K1984*, olaparib 100 nM) was 0.25, the “relative read count (no chemical = 1)” value ([1]; BRCA2 K1984*, olaparib 500 nM) was 0.08 and the “relative read count (no chemical = 1)” value ([1]; BRCA2 K1984*, olaparib 1 μM) was 0.05. The “resistance of BRCA2 K2729N mutant to the PARP inhibitor compared with the wild-type” value ([1]; BRCA2 K2729N) was “substantially the same resistance”, the “relative read count (no chemical = 1)” value ([1]; BRCA2 K2729N, olaparib 1 nM) was 1.08 and the “relative read count (no chemical = 1)” value ([1]; BRCA2 K2729N, olaparib 5 nM) was 1.58. For the same compound, the “relative read count (no chemical = 1)” value ([1]; BRCA2 K2729N, olaparib 10 nM) was 1.36, the “relative read count (no chemical = 1)” value ([1]; BRCA2 K2729N, olaparib 50 nM) was 1.74 and the “relative read count (no chemical = 1)” value ([1]; BRCA2 K2729N, olaparib 100 nM) was 2.31. For the same compound, the “relative read count (no chemical = 1)” value ([1]; BRCA2 K2729N, olaparib 500 nM) was 4.76, the “relative read count (no chemical = 1)” value ([1]; BRCA2 K2729N, olaparib 1 μM) was 3.72 and the “relative read count (no chemical = 1)” value ([1]; BRCA2 L997*, olaparib 1 nM) was 0.85. For the same compound, the “relative read count (no chemical = 1)” value ([1]; BRCA2 L997*, olaparib 5 nM) was 0.71, the “relative read count (no chemical = 1)” value ([1]; BRCA2 L997*, olaparib 10 nM) was 0.54 and the “relative read count (no chemical = 1)” value ([1]; BRCA2 L997*, olaparib 50 nM) was 0.24. The “relative read count (no chemical = 1)” value ([1]; BRCA2 L997*, olaparib 100 nM) was 0.13, the “relative read count (no chemical = 1)” value ([1]; BRCA2 L997*, olaparib 500 nM) was 0.06 and the “relative read count (no chemical = 1)” value ([1]; BRCA2 L997*, olaparib 1 μM) was 0.07. For the same compound, the “relative read count (no chemical = 1)” value ([1]; BRCA2 Q1502*, olaparib 1 nM) was 1, the “relative read count (no chemical = 1)” value ([1]; BRCA2 Q1502*, olaparib 5 nM) was 0.88 and the “relative read count (no chemical = 1)” value ([1]; BRCA2 Q1502*, olaparib 10 nM) was 0.78. For the same compound, the “relative read count (no chemical = 1)” value ([1]; BRCA2 Q1502*, olaparib 50 nM) was 0.43, the “relative read count (no chemical = 1)” value ([1]; BRCA2 Q1502*, olaparib 100 nM) was 0.24 and the “relative read count (no chemical = 1)” value ([1]; BRCA2 Q1502*, olaparib 500 nM) was 0.12. The “relative read count (no chemical = 1)” value ([1]; BRCA2 Q1502*, olaparib 1 μM) was 0.07, the “relative read count (no chemical = 1)” value ([1]; BRCA2 W2970*, olaparib 1 nM) was 0.97 and the “relative read count (no chemical = 1)” value ([1]; BRCA2 W2970*, olaparib 5 nM) was 0.93. The “relative read count (no chemical = 1)” value ([1]; BRCA2 W2970*, olaparib 10 nM) was 0.75, the “relative read count (no chemical = 1)” value ([1]; BRCA2 W2970*, olaparib 50 nM) was 0.45 and the “relative read count (no chemical = 1)” value ([1]; BRCA2 W2970*, olaparib 100 nM) was 0.22. The “relative read count (no chemical = 1)” value ([1]; BRCA2 W2970*, olaparib 500 nM) was 0.09, the “relative read count (no chemical = 1)” value ([1]; BRCA2 W2970*, olaparib 1 μM) was 0.07 and the “relative read count (no chemical = 1)” value ([1]; BRCA2 wild type, olaparib 1 nM) was 1.22. For the same compound, the “relative read count (no chemical = 1)” value ([1]; BRCA2 wild type, olaparib 5 nM) was 1.52, the “relative read count (no chemical = 1)” value ([1]; BRCA2 wild type, olaparib 10 nM) was 1.92 and the “relative read count (no chemical = 1)” value ([1]; BRCA2 wild type, olaparib 50 nM) was 3.19. The “relative read count (no chemical = 1)” value ([1]; BRCA2 wild type, olaparib 100 nM) was 3.82, the “relative read count (no chemical = 1)” value ([1]; BRCA2 wild type, olaparib 500 nM) was 4.2 and the “relative read count (no chemical = 1)” value ([1]; BRCA2 wild type, olaparib 1 μM) was 4.42. For the same compound, the “relative read count (no chemical = 1)” value ([1]; Empty vector, olaparib 1 nM) was 0.98, the “relative read count (no chemical = 1)” value ([1]; Empty vector, olaparib 5 nM) was 0.82 and the “relative read count (no chemical = 1)” value ([1]; Empty vector, olaparib 10 nM) was 0.69. The “relative read count (no chemical = 1)” value ([1]; Empty vector, olaparib 50 nM) was 0.38, the “relative read count (no chemical = 1)” value ([1]; Empty vector, olaparib 100 nM) was 0.21 and the “relative read count (no chemical = 1)” value ([1]; Empty vector, olaparib 500 nM) was 0.07. For the same compound, the “relative read count (no chemical = 1)” value ([1]; Empty vector, olaparib 1 μM) was 0.05, the “MANO-B group of VUS / conflicting-interpretation BRCA2 mutations” value ([2]; 5 mutants: D2913H, P2639L, S3291C, D23V, and I2664M) was “impossible-to-determine (the thresholds were set to 0.1 and 0.5 and the mutations were grouped into 3 groups of benign, malignant, and impossible-to-determine mutations)” and the “MANO-B group of VUS / conflicting-interpretation BRCA2 mutations” value ([2]; 9 mutants: R2659G, N3124I, L2604P, W31C, E2663K, W2626R, D3073G, G2609D, and P2329L) was “malignant (the thresholds were set to 0.1 and 0.5 and the mutations were grouped into 3 groups of benign, malignant, and impossible-to-determine mutations)”. For the same compound, the “MANO-B group of VUS / conflicting-interpretation BRCA2 mutations” value ([2]; 38 mutants: R2896C, A2643G, S142N, N854S, Y42C, G602V, T3387A, T2412A, E3096K, E2020K, S3319F, V1532F, E747G, S2697N, K2411T, P3054S, Q147R, S445Y, S755C, Y600C, K2075N, V159E, P41L, H595Y, F266L, R3385H, T2337A, I2627V, I1167V, N55S, V208G, P3292L, S1074C, T598A, T2071, R324T, A2911V, E1695V) was “benign (the thresholds were set to 0.1 and 0.5 and the mutations were grouped into 3 groups of benign, malignant, and impossible-to-determine mutations)”, the “MANO-B score, highest score of the malignant mutations” value ([2]; BRCA2 G2724W) was 0.03839 and the “MANO-B score, lowest score of the benign mutations” value ([2]; BRCA2 N2436I) was 0.7386.
